Data on twelve compounds can be found in patent publication US8987195B2 (priority 2012, dated 2015).

Like-named read-outs stand apart in the source and are kept apart here.

In test [1] the target is HCV NS3/4A protease genotype 1b (Hepatitis C virus genotype 1b, UniProt P26663). Put plainly: HCV NS3/4A protease time-resolved fluorescence (TRF) assay, Ki against genotype 1b. It counts as biochemical. The method in brief: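 First, protease (genotype 1b 0.2 nM, A156T 0.4 nM, genotype 3a 0.025 nM) is preincubated 30 min with inhibitor. Next, 25 nM TRF substrate starts the reaction, run 2.5 h at room temperature. Finally, europium fluorescence is read and Ki calculated from IC50.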

The next test deals with HCV genotype 1b replicon. The experiment in a line: HCV replicon assay, genotype 1b replicon EC50. It counts as cell-based, Hepatitis C virus. The following applies: Hepatitis C virus, read-out: EC50 [gt-1b]. The method in brief:
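Assay format: compound titration on stable replicon cells, no G418 during treatment, 24 to 48 hours. Lysates were assayed for replicon RNA (hybridization/protection or TaqMan) or luciferase; EC50 fitted to four parameters against DMSO.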
Background: Replicon systems follow genome replication, usually without infectious particles.

Setting [2] is: IC50 [gt-1b] (nM), NS3/4A genotype 1b, enzyme 0.2 nM, K+ salt.
Where [3] appears, read: IC50 [gt-1b], NS3/4A protease TRF assay, genotype 1b enzyme 0.2 nM.
Setting [4] is: IC50 [gt-1b] (nM), NS3/4A genotype 1b, enzyme 0.2 nM.

As a reminder, the IC50 is the point on the concentration scale where inhibition reaches its midpoint. For orientation: EC50 means the concentration that produces a half-maximal response. Take `COCCCOc1ccc2nc(C(F)(F)F)c3c(c2c1)CC[C@]1(C[C@H]2C(=O)N[C@]4(C(=O)NS(=O)(=O)C5(C)CC5)C[C@H]4/C=C\CCCCC[C@H](NC(=O)OC(C)(C)C)C(=O)N2C1)O3` [Example 51, tert-Butyl ((2R,6S,13aS,14aR,16aS,Z)-9′-(3-methoxypropoxy)-14a-(((1-methylcyclopropyl)sulfonyl)carbamoyl)-5,16-dioxo-5′-(trifluoromethyl)-1′,2′,3,5,6,7,8,9,10,11,13a, 14,14a,15,16,16a-hexadecahydro-1H-spiro[cyclopropa[e]pyrrolo[1,2-a][1,4]diazacyclopentadecine-2,3′-pyrano[2,3-c]quinolin]-6-yl)carbamate]: in test [1] (setting [2]), the IC50 turned out to be 0.011 nM. Moreover, the EC50 in the test with HCV genotype 1b replicon (genotype 1b replicon, K+ salt) stood at 0.246 nM.
In test [1] (setting [3]), `CC(C)OC(=O)N[C@H]1CCCCC/C=C\[C@@H]2C[C@@]2(C(=O)NS(=O)(=O)C2(C)CC2)NC(=O)[C@@H]2C[C@]3(CCc4c(c(C(F)(F)F)nc5ccc(Cl)cc45)O3)CN2C1=O` [Example 385, propan-2-yl [(2R,6S,12Z,13aS,14aR,16aS)-9′-chloro-14a-{[(1-methylcyclopropyl)sulfonyl]carbamoyl}-5,16-dioxo-5′-(trifluoromethyl)-1,1′,2′,5,6,7,8,9,10,11,13a,14,14a,15,16,16a-hexadecahydrospiro[cyclopropa[e]pyrrolo[1,2-a][1,4]diazacyclopentadecine-2,3′-pyrano[2,3-c]quinolin]-6-yl]carbamate] registered an IC50 of 0.017 nM. The EC50 in the test on HCV genotype 1b replicon (HCV replicon, genotype 1b) was found to be 6.79 nM.
`CCOC(=O)N[C@H]1CCCCC/C=C\[C@@H]2C[C@@]2(C(=O)NS(=O)(=O)C2(C)CC2)NC(=O)[C@@H]2C[C@]3(CCc4c(c(C(F)F)nc5ccccc45)O3)CN2C1=O` [Example 329, ethyl [(2R,6S,12Z,13aS,14aR,16aS)-5′-(difluoromethyl)-14a-{[(1-methylcyclopropyl)sulfonyl]carbamoyl}-5,16-dioxo-1,1′,2′,5,6,7,8,9,10,11,13a,14,14a,15,16,16a-hexadecahydrospiro[cyclopropa[e]pyrrolo[1,2-a][1,4]diazacyclopentadecine-2,3′-pyrano[2,3-c]quinolin]-6-yl]carbamate]: the IC50 in test [1] (setting [4]) was 0.032 nM. Also, the half-maximal effective concentration (EC50) with HCV genotype 1b replicon (genotype 1b replicon) turned out to be 12.2 nM.
The corresponding values for `Cc1nc2cc(F)c(F)cc2c2c1O[C@]1(CC2)C[C@H]2C(=O)N[C@]3(C(=O)NS(=O)(=O)C4(C)CC4)C[C@H]3/C=C\CCCCC[C@H](NC(=O)OCC3(C)CC3)C(=O)N2C1` [Example 223, (1-methylcyclopropyl)methyl [(2R,6S,12Z,13aS,14aR,16aS)-8′,9′-difluoro-5′-methyl-14a-{[(1-methylcyclopropyl)sulfonyl]carbamoyl}-5,16-dioxo-1,1′,2′,5,6,7,8,9,10,11,13a,14,14a,15,16,16a-hexadecahydrospiro[cyclopropa[e]pyrrolo[1,2-a][1,4]diazacyclopentadecine-2,3′-pyrano[2,3-c]quinolin]-6-yl]carbamate] are 0.013 nM and 11.1 nM.
Regarding `COc1ccc2nc(C(C)C)c3c(c2c1)CC[C@]1(C[C@H]2C(=O)N[C@]4(C(=O)NS(=O)(=O)C5(C)CC5)C[C@H]4/C=C\CCCCC[C@H](NC(=O)OCC4COC4)C(=O)N2C1)O3` [Example 178, oxetan-3-ylmethyl [(2R,6S,12Z,13aS,14aR,16aS)-9′-methoxy-14a-{[(1-methylcyclopropyl)sulfonyl]carbamoyl}-5,16-dioxo-5′-(propan-2-yl)-1,1′,2′,5,6,7,8,9,10,11,13a,14,14a,15,16,16a-hexadecahydrospiro[cyclopropa[e]pyrrolo[1,2-a][1,4]diazacyclopentadecine-2,3′-pyrano[2,3-c]quinolin]-6-yl]carbamate], the IC50 in test [1] (setting [4]) turned out to be 0.007 nM. Besides, in the test on HCV genotype 1b replicon (genotype 1b replicon), the EC50 is 11.1 nM.
As for `CC(C)(C)OC(=O)N[C@H]1CCCCC/C=C\[C@@H]2C[C@@]2(C(=O)NS(=O)(=O)C2(C)CC2)NC(=O)[C@@H]2C[C@@]3(CCc4c(ccc5ccccc45)O3)CN2C1=O` [Example 72, tert-butyl [(3S,6′S,12′Z,13a′S,14a′R,16a′S)-14a′-{[(1-methylcyclopropyl)sulfonyl]carbamoyl}-5′,16′-dioxo-1,1′,2,5′,6′,7′,8′,9′,10′,11′,13a′,14′,14a′,15′,16′,16a′-hexadecahydrospiro[benzo[f]chromene-3,2′-cyclopropa[e]pyrrolo[1,2-a][1,4]diazacyclopentadecin]-6′-yl]carbamate], in test [1] (setting [4]), the IC50 is 0.665 nM. In addition, the EC50 with HCV genotype 1b replicon (genotype 1b replicon) stood at 24.2 nM.
The corresponding values for `COc1ccc2nc(C(C)C)c3c(c2c1)CC[C@]1(C[C@H]2C(=O)N[C@]4(C(=O)NS(=O)(=O)C5(C)CC5)C[C@H]4/C=C\CCCCC[C@H](NC(=O)OC4(C)CC4)C(=O)N2C1)O3` [Example 165, 1-methylcyclopropyl [(2R,6S,12Z,13aS,14aR,16aS)-9′-methoxy-14a-{[(1-methylcyclopropyl)sulfonyl]carbamoyl}-5,16-dioxo-5′-(propan-2-yl)-1,1′,2′,5,6,7,8,9,10,11,13a,14,14a,15,16,16a-hexadecahydrospiro[cyclopropa[e]pyrrolo[1,2-a][1,4]diazacyclopentadecine-2,3′-pyrano[2,3-c]quinolin]-6-yl]carbamate] are 0.005 nM and 1.39 nM.
Take `COCCOc1ccc2nc(C)c3c(c2c1)CC[C@]1(C[C@H]2C(=O)N[C@]4(C(=O)NS(=O)(=O)C5(C)CC5)C[C@H]4/C=C\CCCCC[C@H](NC(=O)OCC(C)C)C(=O)N2C1)O3` [Example 411, 2-methylpropyl [(2R,6S,12Z,13aS,14aR,16aS)-9′-(2-methoxyethoxy)-5′-methyl-14a-{[(1-methylcyclopropyl)sulfonyl]carbamoyl}-5,16-dioxo-1,1′,2′,5,6,7,8,9,10,11,13a,14,14a,15,16,16a-hexadecahydrospiro[cyclopropa[e]pyrrolo[1,2-a][1,4]diazacyclopentadecine-2,3′-pyrano[2,3-c]quinolin]-6-yl]carbamate]: in test [1] (setting [3]), the midpoint of inhibition, the IC50, lay at 0.064 nM. The EC50 in the test with HCV genotype 1b replicon (HCV replicon, genotype 1b) turned out to be 5.77 nM.
With `COc1ccc2c3c(c(C4CC4)nc2c1)O[C@]1(CC3)C[C@H]2C(=O)N[C@]3(C(=O)NS(=O)(=O)C4(C)CC4)C[C@H]3/C=C\CCCCC[C@H](NC(=O)O[C@H]3C[C@@H](C)CC[C@@H]3C(C)C)C(=O)N2C1` [Example 275, (1S,2R,5S)-5-methyl-2-(propan-2-yl)cyclohexyl [(2R,6S,12Z,13aS,14aR,16aS)-5′-cyclopropyl-8′-methoxy-14a-{[(1-methylcyclopropyl)sulfonyl]carbamoyl}-5,16-dioxo-1,1′,2′,5,6,7,8,9,10,11,13a,14,14a,15,16,16a-hexadecahydrospiro[cyclopropa[e]pyrrolo[1,2-a][1,4]diazacyclopentadecine-2,3′-pyrano[2,3-c]quinolin]-6-yl]carbamate], the IC50 in test [1] (IC50 [gt-1b] (nM), NS3/4A genotype 1b, enzyme 0.2 nM, HCOOH salt) was found to be 11.3 nM. In the test on HCV genotype 1b replicon (genotype 1b replicon, HCOOH salt), the EC50 came out at 39.5 nM.
As to `CC1(S(=O)(=O)NC(=O)[C@@]23C[C@H]2/C=C\CCCCC[C@H](NC(=O)OC2CCCC2)C(=O)N2C[C@@]4(CCc5c(c(C(F)(F)F)nc6ccccc56)O4)C[C@H]2C(=O)N3)CC1` [Example 148, cyclopentyl [(2R,6S,12Z,13aS,14aR,16aS)-14a-{[(1-methylcyclopropyl)sulfonyl]carbamoyl}-5,16-dioxo-5′-(trifluoromethyl)-1,1′,2′,5,6,7,8,9,10,11,13a,14,14a,15,16,16a-hexadecahydrospiro[cyclopropa[e]pyrrolo[1,2-a][1,4]diazacyclopentadecine-2,3′-pyrano[2,3-c]quinolin]-6-yl]carbamate], the IC50 in test [1] (setting [2]) was 0.011 nM. In addition, the EC50 in the test with HCV genotype 1b replicon (genotype 1b replicon, K+ salt) is 0.195 nM.
Turning to `COc1ccc2nc(C(C)C)c3c(c2c1)C(F)(F)C[C@]1(C[C@H]2C(=O)N[C@]4(C(=O)NS(=O)(=O)C5(C)CC5)C[C@H]4/C=C\CCCCC[C@H](NC(=O)OC(C)(C)C(F)(F)F)C(=O)N2C1)O3` [Example 299, 1,1,1-trifluoro-2-methylpropan-2-yl [(2S,6S,12Z,13aS,14aR,16aS)-1′,1′-difluoro-9′-methoxy-14a-{[(1-methylcyclopropyl)sulfonyl]carbamoyl}-5,16-dioxo-5′-(propan-2-yl)-1,1′,2′,5,6,7,8,9,10,11,13a,14,14a,15,16,16a-hexadecahydrospiro[cyclopropa[e]pyrrolo[1,2-a][1,4]diazacyclopentadecine-2,3′-pyrano[2,3-c]quinolin]-6-yl]carbamate], the IC50 in test [1] (setting [2]) came out at 0.02 nM. In addition, the EC50 in the test on HCV genotype 1b replicon (genotype 1b replicon, K+ salt) amounted to 6.37 nM.
In test [1] (setting [3]), `Cc1nc2ccccc2c2c1O[C@]1(CC2)C[C@H]2C(=O)N[C@]3(C(=O)NS(=O)(=O)C4(C)CC4)C[C@H]3/C=C\CCCCC[C@H](Nc3cc(C(F)(F)F)ccn3)C(=O)N2C1` [Example 414, (2R,6S,12Z,13aS,14aR,16aS)-5′-methyl-N-[(1-methylcyclopropyl)sulfonyl]-5,16-dioxo-6-{[4-(trifluoromethyl)pyridin-2-yl]amino}-1,1′,2′,6,7,8,9,10,11,13a,14,15,16,16a-tetradecahydrospiro[cyclopropa[e]pyrrolo[1,2-a][1,4]diazacyclopentadecine-2,3′-pyrano[2,3-c]quinoline]-14a(5H)-carboxamide] returned an IC50 of 0.047 nM. Besides, the EC50 in the test on HCV genotype 1b replicon (HCV replicon, genotype 1b) was 5.16 nM.
